From patent publication US7064145B2, “Inhibition of beta cell degeneration” (Novo Nordisk A/S, priority 2000, dated 2006) come the findings set out here.

Several values for one entry are separate records, joined by “and”; a condition that tells them apart may be missing. Equal values may be shown once. Ends that are not written are not given here.

Assay [1] deals with pancreatic islet cells from newborn rats. Description: Beta cell proliferation in vitro (BrdU incorporation into DNA in insulin-positive cells). Format: cell-based. As for the experimental part:
In our efforts to identify beta cell growth factors we discovered that GLP-1 indeed could stimulate beta cell proliferation in vitro. The proliferation was measured as incorporation of the thymidine analogue 5-bromo-2-deoxyuridine (BrdU) into DNA in insulin-positive cells in pancreatic islet cells from newborn rats.
(In general: Incorporation of labelled thymidine or its analogues reports DNA synthesis.)

Assay [2] has as its system remnant and regenerated pancreatic tissue (beta cells). The assay is described as follows: Pancreatic tissue regeneration, BrdU and insulin immunohistochemistry after 60% pancreatectomy. The arrangement: key to Amount of regenerated tissue: The amount of regenerated tissue was scored on the following range: −, (+), +, ++, +++; The amount of regenerated tissue was scored on the following range: −, (+), +, ++, +++; The amount of regenerated tissue was scored on the following range: −, (+), +, ++, +++; The amount of regenerated tissue was scored on the following range: −, (+), +, ++, +++; The amount of regenerated tissue was scored on the following range: −, (+), +, ++, +++. Format: in vivo, Sprague-Dawley rats. Conditions: 20 mg/kg p.o. x2, day 4 to 8. As for the experimental part:
A 60% pancreatectomy was performed on a total of 12 male Sprague-Dawley rats. Vehicle and the DPP-IV inhibitor Val-Pyr was administered to 6 of these from day 4 to 8 in a dose of 20 mg/kg p.o. x2, while the remaining 6 rats were treated with vehicle alone.
The proliferation of beta cells was measured as incorporation of the thymidine analogue 5-bromo-2-deoxyuridine (BrdU) into DNA in insulin-positive cells. 8 days after the 60% pancreatectomy, 100 mg/kg BrdU was administered i.p. and 4 hours later the area containing remnant and regenerated pancreatic tissue was removed and processed for immunohistochemistry. Three adjacent sections from each animal were stained for insulin and BrdU. The amount of regenerated tissue was scored on the following range: −, (+), +, ++, +++. The location of BrDU was examined in regenerated pancreatic (reg) and exocrine (ex) tissue. Insulin staining was scored as weak (W), normal (N), and in regenerated tissue (+R).

A short description of assay [3]: Oral Glucose Tolerance Test (OGTT) at day 8 in 60% pancreatectomized rats. Format: in vivo, Sprague-Dawley rats. The following applies: 20 mg/kg p.o. x2, day 4 to 8.

“GLP-1: insulinotropic hormone Glucagon like peptide-1 (HAEGTFTSDVSSYLEGQAAKEFIAWLVKGR; ends and bridges not checked; UniProt P01275 98-127, looked up)”: the “Number of labelled (BrdU) beta cells” value in assay [1] is recorded as “increase the number of labelled beta cells”.

As for `CC(C)[C@H](N)C(=O)N1CCCC1` [Val-Pyr], the “Animals with insulin expressed in islets located in the regenerating pancreatic tissue” value in assay [2] (vehicle alone 1 out of 6) is reported as 5 out of 6. Moreover, the “Amount of regenerated tissue” value in assay [2] (per animal, tissue removed 8 days after 60% pancreatectomy, 20 mg/kg) is “+ (5×) and ++”. The “Glucose excursion AUC after OGTT” value in assay [3] is on record as ~50 % of vehicle.
